From patent US6039950A, “Pharmaceutical grade saw palmetto” (priority 1997, dated 2000)
“And” between values parts separate entries of the source, which are not always exact repeats. Identical values can stand only once. Like-named read-outs stand apart in the source and are kept apart here. Numbered stars: 1 amine (or outer) side, 2 acyl side, 3 side chain; on linkers, the order of the positions; unused ones are H or OH. Bridge positions count the residues as written; N and C are the ends. Square brackets hold non-standard residues; d marks the D form. Peptide text beside a SMILES is read from it. I, II: the chains in the order shown. Actinocin(9to1) = Cc1c2oc3c(C)ccc(C(=O)[*:1])c3nc-2c(C(=O)[*:2])c(N)c1=O; NMeV = CN[C@H](C(=O)O)C(C)C; Sar = CNCC(=O)O

How the values were obtained:
[1] = test system: smooth muscle; conditions: cited from earlier work
[2] = target: T1, Cyclooxygenase-2 (Ovis aries, UniProt P79208); test: biochemical; type: biochemical, sheep
T1 construct: Cyclooxygenase-2 (from sheep placenta); from tissue; host or cells: sheep placenta; assay by Panlabs
Procedure: The reaction is initiated by addition of arachidonic acid (100 mM) and terminated after 20 minutes incubation at 37° C. by addition of TCA.

[3] = target: T2, Cyclooxygenase-1 (Ovis aries, UniProt P05979); test: biochemical; type: biochemical, ram; conditions: for Cox1 activity: screened at 3×10^-4 M
T2 construct: Cyclooxygenase-1 (from ram seminal vesicles); from tissue; host or cells: ram seminal vesicles; assay by Panlabs
T2 sequence (P05979 25-600): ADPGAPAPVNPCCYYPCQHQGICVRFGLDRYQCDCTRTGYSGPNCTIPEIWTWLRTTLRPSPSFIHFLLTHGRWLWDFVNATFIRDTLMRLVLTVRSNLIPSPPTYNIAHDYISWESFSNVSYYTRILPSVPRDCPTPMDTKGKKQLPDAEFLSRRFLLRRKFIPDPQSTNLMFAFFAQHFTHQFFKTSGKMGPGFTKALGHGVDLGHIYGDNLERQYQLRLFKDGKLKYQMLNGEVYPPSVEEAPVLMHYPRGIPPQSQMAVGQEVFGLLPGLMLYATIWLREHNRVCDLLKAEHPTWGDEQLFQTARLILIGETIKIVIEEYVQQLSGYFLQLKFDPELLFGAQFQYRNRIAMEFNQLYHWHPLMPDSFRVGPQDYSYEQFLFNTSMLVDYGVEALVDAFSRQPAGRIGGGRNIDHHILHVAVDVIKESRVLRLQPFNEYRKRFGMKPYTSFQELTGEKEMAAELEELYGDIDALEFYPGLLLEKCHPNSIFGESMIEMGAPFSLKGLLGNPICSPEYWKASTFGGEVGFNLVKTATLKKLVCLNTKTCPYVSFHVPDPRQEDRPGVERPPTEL
Procedure: The reaction was initiated by addition of arachidonic acid (100 mM) and terminated after 20 minutes incubation at 37° C. by addition of trichloroacetic acid (TCA).

[4] = target: T3, 5-lipoxygenase (Rattus norvegicus, UniProt P12527); test: biochemical; conditions: for 5-Lipo activity: screened at 3×10^-5 (30 μM)
T3 sequence (P12527 1-673): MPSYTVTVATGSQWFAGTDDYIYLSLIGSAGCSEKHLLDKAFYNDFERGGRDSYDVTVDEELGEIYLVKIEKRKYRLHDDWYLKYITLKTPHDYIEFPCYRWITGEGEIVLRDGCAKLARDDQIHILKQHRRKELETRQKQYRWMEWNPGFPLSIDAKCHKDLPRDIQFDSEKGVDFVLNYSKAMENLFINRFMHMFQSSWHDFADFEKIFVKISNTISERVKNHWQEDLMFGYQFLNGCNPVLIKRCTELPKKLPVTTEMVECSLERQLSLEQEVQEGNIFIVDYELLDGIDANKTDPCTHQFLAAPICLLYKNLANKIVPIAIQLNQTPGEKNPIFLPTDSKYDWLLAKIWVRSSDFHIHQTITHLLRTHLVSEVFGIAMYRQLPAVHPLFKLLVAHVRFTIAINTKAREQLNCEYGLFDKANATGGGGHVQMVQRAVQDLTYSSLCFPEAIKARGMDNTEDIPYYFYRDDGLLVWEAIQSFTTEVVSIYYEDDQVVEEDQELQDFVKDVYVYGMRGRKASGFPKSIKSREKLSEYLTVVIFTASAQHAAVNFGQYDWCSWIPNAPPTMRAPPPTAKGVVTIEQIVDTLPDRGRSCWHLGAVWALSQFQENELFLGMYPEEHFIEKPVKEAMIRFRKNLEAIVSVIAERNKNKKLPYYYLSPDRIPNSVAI

[5] = target: T4, rat prostatic androgen receptor (Rattus norvegicus, UniProt P15207); test: Rat prostatic nuclear androgen receptor binding assay against 3H-dihydrotestosterone
T4 construct: the ventral prostates were rapidly removed and placed in ice-cold "homogenization buffer"; from tissue; host or cells: washed nuclear suspension of ventral prostate from testosterone-treated male rats (Harlan)
T4 sequence (P15207 1-902): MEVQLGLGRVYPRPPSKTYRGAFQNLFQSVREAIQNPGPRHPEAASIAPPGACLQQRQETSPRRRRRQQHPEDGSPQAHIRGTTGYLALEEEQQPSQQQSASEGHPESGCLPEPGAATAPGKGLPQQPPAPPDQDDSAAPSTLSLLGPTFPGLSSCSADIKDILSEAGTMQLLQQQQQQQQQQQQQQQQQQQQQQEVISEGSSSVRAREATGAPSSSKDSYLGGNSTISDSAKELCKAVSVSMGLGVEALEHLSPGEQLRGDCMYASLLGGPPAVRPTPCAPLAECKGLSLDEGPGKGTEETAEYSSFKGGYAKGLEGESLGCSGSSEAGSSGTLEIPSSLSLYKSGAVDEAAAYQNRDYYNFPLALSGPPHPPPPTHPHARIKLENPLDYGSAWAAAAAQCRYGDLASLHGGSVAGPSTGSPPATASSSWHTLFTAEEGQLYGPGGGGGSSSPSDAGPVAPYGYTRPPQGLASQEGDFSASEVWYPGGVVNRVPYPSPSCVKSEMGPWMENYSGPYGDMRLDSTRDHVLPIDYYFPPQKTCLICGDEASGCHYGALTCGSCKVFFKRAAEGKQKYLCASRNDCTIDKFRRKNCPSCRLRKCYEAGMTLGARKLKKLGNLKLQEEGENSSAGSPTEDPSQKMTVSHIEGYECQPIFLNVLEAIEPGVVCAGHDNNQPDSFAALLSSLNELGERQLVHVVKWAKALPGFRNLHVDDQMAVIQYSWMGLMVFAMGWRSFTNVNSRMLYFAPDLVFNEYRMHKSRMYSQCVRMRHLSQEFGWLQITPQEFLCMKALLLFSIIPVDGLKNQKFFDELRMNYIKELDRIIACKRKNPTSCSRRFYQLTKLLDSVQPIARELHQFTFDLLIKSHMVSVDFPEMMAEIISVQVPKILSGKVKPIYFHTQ
Procedure: Rats were fed with Purina chow and tap water, ad libitum.
General chemicals (reagent grade), free fatty acids, fatty acid ethyl esters and radioinert steroids were obtained from Sigma Chemical Company (St. Louis, Mo.). ^3 H-dihydrotestosterone (5α-androstan-17β-ol-3-one; 60 Ci/mmol) was purchased from NEN Life Science Products (Boston, Mass.). 100% ethanol was used throughout for the preparations of all inhibitors and radioinert chemicals.
The animals were treated intraperitoneally with testosterone (400 μg/100 g body wt). […] The homogenate was centrifuged at 800×g for 20 minutes at 4° C. […] The resuspended pellet was homogenized on ice using a glass Dounce homogenizer until suspension became uniform.
Non-specific binding was determined using radioinert dihydrotestosterone (10^-5 M) in place of the inhibitor. The test tubes were incubated for 20 hours at 15° C.
After an overnight incubation, 1 ml of ice-cold nuclear buffer was added followed by centrifugation at 800×g for 10 minutes at 4° C. The nuclear pellets were washed 3 times by resuspension in 1 ml of the same ice-cold nuclear buffer, with mixing and centrifugation as above. After discarding the final supernatant, 1 ml of 100% ethanol was added to each pellet and then vortexed. Test tubes were placed in a 30° C. water bath for 40 minutes, with vortexing every 10 minutes and a final centrifugation at 800 g for 10 minutes. The ethanol extracts were decanted into vials containing 4 ml of scintillation fluid (Ecoscint A), shaken and counted.
The results, expressed as percent inhibition of ^3 H-Dihydrotestosterone binding, at two concentrations of putative active components, of the rat prostatic androgen receptor assay are below.

[6] = test system: Type 2 5α-reductase; conditions: cited from earlier work
[7] = test system: Type 1 5α-reductase; conditions: cited from earlier work
[8] = Table 8, read-out: Cyclooxygenase-1 IC50 (Table 8)
[9] = Table 8, read-out: Cyclooxygenase-2 IC50 (Table 8)
[10] = Table 8, read-out: 5 Lipoxygenase IC50 (Table 8)
[11] = read-out: Testosterone affinity, Km

T1 sequence (P79208 17-603): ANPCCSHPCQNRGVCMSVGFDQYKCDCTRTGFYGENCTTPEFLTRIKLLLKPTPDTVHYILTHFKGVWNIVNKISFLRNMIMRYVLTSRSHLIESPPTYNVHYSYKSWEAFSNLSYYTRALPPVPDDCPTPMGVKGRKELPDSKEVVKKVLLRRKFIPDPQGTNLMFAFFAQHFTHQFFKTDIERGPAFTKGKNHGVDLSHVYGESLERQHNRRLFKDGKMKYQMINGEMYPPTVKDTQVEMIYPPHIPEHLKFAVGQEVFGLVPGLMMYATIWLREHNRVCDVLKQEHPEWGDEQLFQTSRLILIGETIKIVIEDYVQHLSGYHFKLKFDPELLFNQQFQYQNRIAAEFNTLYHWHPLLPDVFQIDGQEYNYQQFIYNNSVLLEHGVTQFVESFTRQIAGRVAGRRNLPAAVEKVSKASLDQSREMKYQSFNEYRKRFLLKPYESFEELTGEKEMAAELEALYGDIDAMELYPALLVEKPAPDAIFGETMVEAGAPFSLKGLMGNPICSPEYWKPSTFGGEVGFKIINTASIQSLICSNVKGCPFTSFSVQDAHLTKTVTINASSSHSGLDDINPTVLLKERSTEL

Compound | effect on relaxant effect of Sabal extracts [1] | Cox2 activity [2] | IC50 [3, 8] [µM] | Cox1 activity [3] | 5-Lipo activity [4] | also measured
C[C@@H]1C[C@@H]([C@H](O)CC2CC(=O)NC(=O)C2)C(=O)[C@@H](C)C1 [Cycloheximide] | antagonized | – | – | – | – | –
CCCCCCCC/C=C\CCCCCCCC(=O)OCC [Ethyl Oleate] | – | Negative | > 300 | Negative | Negative | IC50 [2]: > 300 µM; IC50 [4]: > 30 µM
CCCCCCCCCCCCCCCC(=O)OCC [Ethyl Palmitate] | – | Negative | > 300 | Negative | Negative | IC50 [2, 9]: > 300 µM; IC50 [4, 10]: > 30 µM
CCCCC/C=C\C/C=C\CCCCCCCC(=O)OCC [Ethyl linoleate, ethyl linoleate] | – | Negative | > 300 | Negative | Negative | IC50 [2, 9]: > 300 µM; IC50 [4, 10]: > 30 µM
CC/C=C\C/C=C\C/C=C\CCCCCCCC(=O)OCC [Ethyl linolenate] | – | Negative | > 300 | Negative | Negative | IC50 [2, 9]: > 300 µM; IC50 [4, 10]: > 30 µM
CC(C)NC[C@H](O)COc1cccc2ccccc12 [L-propranolol] | potentiated | – | – | – | – | –
CCCCCCCCCCCCCC(=O)O [Myristic Acid] | – | Negative | > 300 | Negative | Negative | IC50 [2, 9]: > 300 µM; IC50 [4]: > 30 µM
CCCCCCCCCCCCCC(=O)OCC [Myristic Ester, ethyl myristate] | – | Negative | – | Negative | Negative | –
CCCCCCCC/C=C\CCCCCCCC(=O)O [Oleic Acid] | – | Negative | > 300 | Negative | Negative | IC50 [2]: > 300 µM; IC50 [4, 10]: > 30 µM
CCCCCCCCCCCCCCCC(=O)O [Palmitic Acid] | – | Negative | > 300 | Negative | Negative | IC50 [2, 9]: > 300 µM; IC50 [4, 10]: > 30 µM
C/C(=C\CO)CCC[C@H](C)CCC[C@H](C)CCCC(C)C [Phytol] | – | – | – | – | – | % Inh, individual experiment ([5]; 1.00E-04 M): 87.0% and 64% and 97% and 8.0% and 31% and 29% and 33%; % Inh, individual experiment ([5]; 1.00E-05 M): 0.0% and 76% and 10% and 4.0% and 26% and 38% and 41%; % Inh, Mean ([5]; 1.00E-05 M, SE 10.1): 32.0%; % Inh, individual experiment ([5]; 1.00E-06 M): 82.0% and 88% and 81% and 31% and 25% and 3.0% and 7.0%; % Inh, Mean ([5]; 1.00E-06 M, SE 14.12): 31.0%; % Inh, individual experiment ([5]; 3.00E-05 M): 89.0% and 90% and 32% and 25% and 9.0% and 20% and 21%; % Inh, Mean ([5]; 3.00E-05 M, SE 12.8): 28.5%; % Inh, individual experiment ([5]; 3.00E-06 M): 65% and 0.0% and 9.0% and 73%; % Inh, Mean ([5]; 3.00E-06 M, SE 12.5): 9.0%; % Inh, individual experiment ([5]; 3.00E-07 M): 14.0% and 2.0% and 0.0%; % Inh, Mean ([5]; 3.00E-07 M, SE 4.3): 2.0%; IC50 ([5]; Table 4, marker compounds, read-out: Androgen Receptor IC50 (Table 4)): 10 µM; inhibition at 10 µM ([5]; at 10 μM): 50%; IC50 ([5]; read-out: androgen receptor assay IC50): 10 µM
CC(C)NC[C@@H](O)COc1cccc2ccccc12 [R-propranolol] | inactive | – | – | – | – | –
NCCCC(N)(C(=O)O)C(F)F (stereo not shown) [a-difluoromethyl-ornithine] | not modified | – | – | – | – | –
Cc1c2oc3c(C)ccc(C(=O)N[C@@H]4C(=O)N[C@H](C(C)C)C(=O)N5CCC[C@H]5C(=O)N(C)CC(=O)N(C)[C@@H](C(C)C)C(=O)O[C@@H]4C)c3nc-2c(C(=O)N[C@@H]2C(=O)N[C@H](C(C)C)C(=O)N3CCC[C@H]3C(=O)N(C)CC(=O)N(C)[C@@H](C(C)C)C(=O)O[C@@H]2C)c(N)c1=O [actinomycin D] (I: T[dV]P[Sar][NMeV] / II: T[dV]P[Sar][NMeV]; ester I:1-I:C, II:1-II:C; linker I:N-II:N via Actinocin(9to1)) | antagonized the effect of the total lipidic extract without modifying that of the saponifiable extract | – | – | – | – | –
O=c1c(-c2ccc(O)cc2)coc2cc(O)cc(O)c12 [genistein] | not modified | – | – | – | – | –
O=C1CCN(c2ccccc2)N1 [phenidone, reference compound] | – | – | – | – | – | IC50 ([4]; reference compound, read-out: IC50, reference compounds, 5-lipoxygenase): 30 µM
C[C@]12CC[C@H]3[C@@H](CCC4=CC(=O)CC[C@@]43C)[C@@H]1CC[C@@H]2O [testosterone] | – | – | – | – | – | Testosterone, Vmax [6]: 57.6 nmoles/10^6 cells/min; Km [6, 11]: 0.5 µM; Testosterone, Vmax [7]: 4.2 nmoles/10^6 cells/min; Km [7, 11]: 2.9 µM
CC[C@H](CC[C@@H](C)[C@H]1CC[C@H]2[C@@H]3CC=C4C[C@@H](O)CC[C@]4(C)[C@H]3CC[C@]12C)C(C)C [β-sitosterol] | – | – | – | – | – | IC50 [2]: > 300 µM; IC50 [3]: > 300 µM; IC50 [4]: > 30 µM
